Literature values, collected in US20030031651A1, “Methods and reagents for cell transplantation” (priority 2001, published 2003).

Tested on: BMSCs
Conditions: BMSCs exposed to 5-azacytidine

Nc1ncn([C@@H]2O[C@H](CO)[C@@H](O)[C@H]2O)c(=O)n1 [5-azacytidine]
c-abl and interleukin-6 transcripts: rapidly upregulate | expression of collagen I: downregulating
